Consider 86 compounds from a melting point compilation (Tetko et al.; mined from patent text by program, amines drawn as free bases though some values may be those of a salt).

Turning to `COC(=O)c1sc(C(=O)OC)c(OC)c1N`, the melting point (as a rule, the temperature of the solid-liquid transition) fell in the range of 120 to 124 °C.

For `Cc1cc(OCc2oc(-c3ccc(C(F)(F)F)cc3)nc2C)ccc1OCC(=O)O`, the melting point fell in the range of 136 to 137 °C.

`CC(NC(=O)C=Cc1ccccc1F)c1ccc2c(c1)N(C)CCC2` (stereo unspecified): the melting point fell in the range of 60 to 63 °C.

Take `CC1(C)OC(=O)Nc2ccc(-c3ccc(F)c(F)c3)cc21`: the melting point fell in the range of 207 to 208 °C.

Compound `CCOC(=O)c1c(N2CCN(C(=O)c3cccs3)CC2)c2cc(F)cnc2n(CC(=O)c2ccccc2)c1=O` returned a melting point of 262 °C.

Consider `Cc1nc(C(=O)NN(C)C)c2n1-c1ccc(Cl)cc1C(c1ccccc1F)NC2` (stereo unspecified), for which the melting point lay within 218 to 219 °C.

`CNc1ccc(OCCN2CCC(Cc3ccc(C)cc3)CC2)cc1` registered a melting point of 136 to 137 °C.

For the compound `CCCc1cc(OCC)c2c(c1OC)S(=O)(=O)N(CCl)C2=O`, the melting point lay in the range of 131 to 133 °C.

For the compound `Cc1ccc(C2=NOC(c3cc(Cl)cc(Cl)c3)(C(F)(F)F)C2)cc1Cl` (stereo unspecified), the melting point is 97 to 99 °C.

In the case of `CC(=O)N1CCC2(CC1)Cc1cc([N+](=O)[O-])ccc1O2`, the melting point lay within 149 to 150 °C.

Consider `CCCOc1ccc(F)c2c(=O)c3ccccc3sc12`, for which the melting point fell in the range of 125 to 127 °C.

`Cn1c(C(F)(F)F)cc(=O)n(-c2nc(Cl)c(C#N)cc2F)c1=O` returned a melting point of 146 to 148 °C.

With `Cc1nnc2n1-c1ccc(C#CCn3ncc4ccccc43)cc1C(c1ccccc1F)=NC2`, the melting point fell in the range of 148 to 151 °C.

`COC(=O)c1ncn2c1CN=C(c1ccccc1Cl)c1cc(Cl)ccc1-2` came in with a melting point of 206 to 208 °C.

For `Cc1cc(NC(=O)C(C)(O)COc2cccc(F)c2F)ccc1[N+](=O)[O-]` (stereo unspecified), the melting point lay within 68 to 73 °C.

`CCCCCCCCCCCCCc1cc(C(=O)OCCBr)c[nH]1` returned a melting point of 67 to 69.5 °C.

In turn, `Cc1nc(N)c(C(N)=S)s1` displayed a melting point of 209 to 213 °C.

On to `N#CCOc1cccc(CN2C(=O)c3cccc(NC(=O)c4ccc(Cl)s4)c3C2=O)c1`, for which the melting point was 164 °C.

`C=CCOc1ccc(Cl)cc1C(=O)OC`: the melting point was in the range of 25 to 26 °C.

In turn, `N#CCc1ccc([N+](=O)[O-])c2[nH]ncc12` returned a melting point of 198 to 200 °C.

In turn, `CCCCC(CC)CNCCCCOc1ccc2ccccc2c1` (stereo unspecified) came in with a melting point of 94 °C.

Take `CC(C)(c1ccc(Oc2ccc(N3C(=O)C=CC3=O)cc2)cc1)c1ccc(C(C)(C)c2ccc(Oc3ccc(N4C(=O)C=CC4=O)cc3)cc2)cc1`: the melting point was in the range of 214 to 216 °C.

Compound `CC(C)(C)OC(=O)N1CCC(C(=O)N2CCN(c3ccncn3)CC2)CC1` yielded a melting point of 159 to 163 °C.

Take `O=C(O)C1c2ccccc2COc2ccc(I)cc21` (stereo unspecified): the melting point is 191 to 192 °C.

As for `CCNC(=O)C(C)NS(=O)(=O)c1ccc(C)cc1` (racemic), the melting point was 106 to 107 °C.

The compound `NC(=O)Cc1ccc(OC[C@@H]2CO2)cc1` gave a melting point of 168 to 169 °C.

Compound `O=C1NC(=O)C(S(=O)(=O)c2ccc3ccccc3c2)S1` (stereo unspecified) had a melting point of 196 to 197 °C.

`N#Cc1ccccc1OC(=O)CCC1CCN(C(=N)N)CC1` showed a melting point of 160 to 162 °C.

For `CCCCCc1ccc(CCc2ccc(-c3ccc(CC)cc3F)cc2)cc1`, the melting point worked out at 40 °C.

`CCCCCCCCCCCCCCCCCCSc1ccc(C)cc1`: the melting point was 54 to 55 °C.

`CCCCCNC(=O)[C@H](Cc1ccc(N(CC(=O)O)CC(=O)O)cc1)NC(=O)[C@H](Cc1ccccc1)NC(=O)OC(C)(C)C` displayed a melting point of 151 to 152 °C.

In the case of `O=C1CC(c2ccc(Cl)cc2Cl)c2cc(Br)ccc2O1` (stereo unspecified), the melting point was in the range of 117 to 118 °C.

On to `CCCC(=O)C(=O)C(CC1CCCCC1)NC(=O)C(CC(C)C)NC(=O)C(Cc1ccccc1)NC(=O)OC(C)(C)C` (stereo unspecified), for which the melting point is 87 to 92 °C.

In turn, `O=C(NC(CO)CO)c1cccc(-c2ccc3c(c2)C(c2ccc(Cl)cc2Cl)CC3)c1` (stereo unspecified) showed a melting point of 135 to 157 °C.

`COC(=O)CCCc1cc2cc(Cl)ccc2n1S(=O)(=O)c1cccc2nsnc12` had a melting point of 123 to 126 °C.

In turn, `COc1cc(OC)c(-c2ccc(C)s2)cc1C=CC(=O)c1ccc(C(=O)O)cc1` showed a melting point of 213 to 215 °C.

`Cc1cc(Nc2ncnc3ccc(-n4ccnc4)cc23)ccc1OCc1ccccn1` gave a melting point of 208 to 211 °C.

For the compound `CN1CC(C(=O)N(C)Cc2ccc(C(F)(F)F)cc2)=C(O)C1=O`, the melting point fell in the range of 126 to 128 °C.

With `Cn1c(CC(=O)O)ccc1C(=O)c1cccc(Cl)c1`, the melting point was determined as 165 °C.

For `COc1ccc(-c2cc(-c3ccccc3)c(-c3ccccc3)s2)cc1F`, the melting point was 118 to 122 °C.

As for `O=C(O)CN1C(=O)C(=CC=Cc2cccc(-c3ccccc3)c2)SC1=S`, the melting point lay within 232 to 237 °C.

On to `Cc1cc(OCc2ncc([N+](=O)[O-])n2C)ccc1S(C)=O` (stereo unspecified), for which the melting point came to 121 °C.

The compound `Cc1ccc2nc(C)c(C(=O)NNC(=O)CCl)n2c1` gave a melting point of 290 to 291 °C.

`CCCCCCCCCCCCCCCCCCc1c(C(=O)OCC)[nH]c(C)c1C` displayed a melting point of 78 to 80 °C.

Take `CC(C)(C)c1ccc(N(c2ccccc2)c2ccc(-c3ccc(Nc4ccccc4)cc3)cc2)cc1`: the melting point lay in the range of 126 to 127 °C.

In the case of `O=C1[C@H]2CCC[C@H]2N(C(=O)CBr)c2ccccc2N1Cc1ccccc1F` (relative stereo), the melting point was 198 to 200 °C.

The compound `CCCO[C@@H]1C[C@@H](C(=O)NC)N(S(=O)(=O)c2ccc(Cl)c(CBr)c2Cl)C1` showed a melting point of 62 °C.

In turn, `O=C(O)c1cc(C(c2ccccc2)(c2ccccc2)c2ccccc2)ccc1O` gave a melting point of 234 to 237 °C.

In the case of `Cc1nnc(-c2ccc3occ(-c4ccc(S(=O)(=O)C(C)C)cc4)c3c2)o1`, the melting point fell in the range of 229 to 230 °C.

Regarding `O=CC1CCC(C2CC[Si](c3ccccc3)(c3ccccc3)CC2)CC1` (stereo unspecified), the melting point worked out at 107 °C.

In turn, `O=C(Oc1ccccc1Cl)c1ncn2c1[C@@H]1CCCN1C(=O)c1c(Cl)cccc1-2` showed a melting point of 214 to 215 °C.

In the case of `O=c1[nH]c2c(OC3CNC3)cccc2n1Cc1ccccc1`, the melting point was 181 to 184 °C.

`Clc1ncc(-c2ccc3ccncc3c2)c2ccccc12` had a melting point of 169 to 170 °C.

As for `CC(=NO)C(C)(C)NCCCNC(C)(C)C(COCC(O)Cn1ccnc1[N+](=O)[O-])=NO` (stereo unspecified), the melting point was 72 to 73 °C.

Turning to `CN(C)C(=O)N(NC(=O)C(F)(F)F)c1ccc(Cl)cc1Cl`, the melting point was in the range of 137 to 138 °C.

`Cc1cn(-c2ccc(NC(=O)c3ccc(Cl)c(C#Cc4cnc(NC5CC5)nc4)c3)cc2C(F)(F)F)cn1` registered a melting point of 141 to 143 °C.

Take `C=C1c2cccc(NC(=O)c3c(Cl)cccc3Cl)c2OC1(C)OC` (stereo unspecified): the melting point is 208 to 210 °C.

In the case of `CCNC(=O)c1nn(-c2ccc(Cl)cc2)c(=O)c2c(N)scc12`, the melting point is 203 to 205 °C.

Regarding `CCOc1cc(CCl)cc(OCc2nc(-c3ccccc3)oc2C)c1`, the melting point fell in the range of 86 to 87 °C.

For `C[Si]1(C)CCCCCCCCCCCCCC[Si](C)(C)O[Si](C)(C)CCCCCCCCCCCCCC[Si](C)(C)O1`, the melting point came out at 97 °C.

`CN(C)Cc1cc2ccc(-c3nnc(CSCCOc4ccccc4)o3)cc2[nH]1` yielded a melting point of 128 to 130 °C.

`O=c1[nH]c(-c2ccccc2)ncc1[N+](=O)[O-]` yielded a melting point of 264 to 266 °C.

As for `CN1CCC(N(C)S(=O)(=O)c2ccc(Nc3nccc(Nc4ccc(F)c(F)c4)n3)cc2)CC1`, the melting point lay within 181 to 183 °C.

On to `CCOC(=O)c1cc2cccnc2[nH]1`, for which the melting point lay within 153 to 156 °C.

`O=C(NCC1CCOCC1)Nc1ccc(C(F)(F)F)cc1` gave a melting point of 148 to 149 °C.

On to `CC1(C)CCC(C)(C)c2c(OS(=O)(=O)C(F)(F)F)cc(-c3ccccc3)cc21`, for which the melting point amounted to 110 °C.

The compound `Cc1ccc(C)c2cc3ccccc3cc12` gave a melting point of 70 to 72 °C.

In turn, `CCCCOC(C=Cc1ccc(C(=O)O)cc1)c1ccc2c(c1)C(C)(C)CCC2(C)C` (racemic) yielded a melting point of 78 to 80 °C.

`CCc1nnc(-c2ccc(C)c(-c3ccc(F)cc3)n2)nc1CC` showed a melting point of 108 °C.

With `O=S(=O)(c1ccc(Cl)cc1)C(c1ccc(CO)cn1)c1cc(F)ccc1F` (stereo unspecified), the melting point fell in the range of 151 to 152 °C.

Regarding `Nc1nc(-n2cc(C(=O)O)c(=O)c3cc(F)c(NCC(O)CO)c(Cl)c32)c(F)cc1F` (stereo unspecified), the melting point was 166 to 169 °C.

Take `O=C1Cc2c3c(cc4ccccc24)N(c2ccccc2)C(=O)CN13`: the melting point was in the range of 296 to 300 °C.

In turn, `COC(=O)c1ccc2cc(O)ccc2c1` showed a melting point of 196 °C.

Compound `CCCCCCCCNC(=O)OC1CCN(C(=O)Oc2ccc(Oc3ccccc3)cc2)CC1` displayed a melting point of 73 to 75 °C.

Turning to `COC1c2ccccc2C2C(=O)N(Cc3ccccc3)C(=O)C12` (stereo unspecified), the melting point fell in the range of 170 to 172 °C.

`CON(C)S(=O)(=O)c1ccccc1N` registered a melting point of 50 °C.

Compound `CC(=O)SCCCCCCCCCCCOCCOCCOCCOc1ccc(OCc2ccccc2)cc1` came in with a melting point of 55 to 57 °C.

`Cc1c(-c2ncc(Cl)cc2F)nn(C)c1C(N)=O` displayed a melting point of 201 to 204 °C.

For `COc1nc(C(F)(F)F)cc(=O)n1-c1cc(OC(C)C)c(Cl)cc1F`, the melting point lay within 117 to 119 °C.

Compound `Cc1cccc(NC(=O)NCC(=O)N(CC(=O)OC(C)(C)C)c2ccccc2)c1` yielded a melting point of 180 °C.

With `CCc1cc(NCc2ccc(-c3ccccc3-c3nnn[nH]3)cc2)n2nccc2n1`, the melting point was 177 to 179 °C.

Compound `NNC(=S)c1cc(F)c2ncc(C(=O)NCc3ccc(Cl)cc3)c(O)c2c1` came in with a melting point of 317 to 319 °C.

Take `COc1ncc(Cc2nnc(Nc3ccc(C(C)(C)C)cc3)c3ccccc23)cc1-c1ccco1`: the melting point is 180 to 182 °C.

`COc1cc(OCCO)c([N+](=O)[O-])cc1[N+](=O)[O-]` registered a melting point of 137 to 140 °C.

As for `CCc1c(C(=O)C(N)=O)c2c(OCC(=O)N(C)OC)cccc2n1Cc1ccccc1`, the melting point lay within 168 to 170 °C.

Consider `CCN1C(=O)CCC2(CCC(=O)c3ccccc32)C1=O` (stereo unspecified), for which the melting point was 85.5 to 89 °C.
